Assay results taken from patent US9492546B2, “Use of bethanechol for treatment of Xerostomia” (Acacia Pharma Limited, priority 2011, dated 2016).

How the values were obtained:
[1] = cited from earlier work
[2] = cited from earlier work; remark: listed apart in the source
[3] = system: rabbits; test: Blood pressure and heart rate in anaesthetised rabbits (separate experiment); assay type: in vivo, rabbit; conditions: intravenous, dose-related at 30, 100 and 300 μg/kg
From the text: In a further, separate experiment, formulation 14C and its matching placebo were given to 3 anaesthetised rabbits in which blood pressure, via an indwelling cannula in the carotid artery, was monitored, along with heart rate.

[4] = system: patients with xerostomia; conditions: administered orally, small number of clinical studies; cited from earlier work
[5] = system: New Zealand White rabbits; test: Heart rate in anaesthetised rabbits, topical formulations versus IV bethanechol; assay type: in vivo, rabbit; conditions: range of doses
From the text: More specifically, adult male New Zealand White rabbits, of approximate body weight 2.0 to 3 kg, were allocated in groups of three to be treated with formulations of bethanechol given in Table 1, designated 2, 6, 9 and 14C, along with each of their matching placebos. Animals were anaesthetised with urethane, administered IP, and heart rate was monitored via ECG leads. They were placed in the prone position after being anaesthetised (this inhibits the drug from entering the GI tract). Salivation was measured by inserting pre-weighed cotton wool balls into the oral cavity, removing after five or ten minutes and weighing. The difference in weight provided an estimate of salivary flow.
At the end of the experiment, one animal from each group was given bethanechol intravenously at a range of doses, in order to produce a dose-response curve for heart rate. This was compared to the effect of the active formulations, when given topically, on heart rate.

[6] = system: healthy volunteers; test: Phase 1 study, formulation applied topically to the oral mucosa; assay type: in vivo, human; conditions: oral and oromucosal
Procedure: In a Phase 1 study involving four healthy volunteers, Formulation 14C applied topically to the oral mucosa at doses up to 20 mg, kept in situ for two minutes.
This local absorption is likely to deliver enough bethanechol to the minor salivary glands, numbering in the hundreds to thousands and located immediately below the oral mucosa, to stimulate them to produce mucin-rich saliva which is disproportionately important for ensuring a comfortable month feel. When added to the salivary stimulation achieved by oral ingestion of bethanechol, it may reasonably be concluded that the formulation can produce better relief from xerostomia, with fewer side-effects, than purely systemic dosing of bethanechol.

For `CC(C[N+](C)(C)C)OC(N)=O` (centres unmarked) [bethanechol chloride, Bethanechol chloride], the “Penetration into the CNS” value ([1]; at therapeutic doses) is listed as “does not significantly penetrate into the CNS”, the “Absorption from the GI tract” value ([1]; in vivo) is listed as “only poorly absorbed” and the aqueous solubility [2] is listed as “high”. The “Effect on blood pressure” value [3] was “reduced”, the “Effect on heart rate” value [3] was “reduced” and the Salivary flow [4] was “increase salivary flow”. The “Effect on heart rate” value [5] was “marked and dose-dependent bradycardia” and the “Pharmacokinetics (linearity)” value [6] was “linear”.
